Molecules are shown by their SMILES. pKi: −log10 of the molar value.

Experiment [1] addresses T1, human adenosine A1 receptor (Homo sapiens, UniProt P30542).
T1 construct: expressed in transfected cells; host or cells: CHO cells (CHOhA1R), gift of Prof; S. J. Hill; membrane preparation
T1 sequence (P30542 1-326): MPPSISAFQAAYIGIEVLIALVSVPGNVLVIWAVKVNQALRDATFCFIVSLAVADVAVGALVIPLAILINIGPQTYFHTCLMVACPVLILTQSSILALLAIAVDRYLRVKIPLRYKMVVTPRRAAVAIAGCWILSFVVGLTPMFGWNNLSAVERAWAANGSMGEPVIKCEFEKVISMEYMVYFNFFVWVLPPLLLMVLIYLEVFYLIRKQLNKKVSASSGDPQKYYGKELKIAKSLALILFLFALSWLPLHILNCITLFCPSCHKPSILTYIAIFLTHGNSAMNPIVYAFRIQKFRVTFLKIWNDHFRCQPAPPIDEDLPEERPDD
The experiment in a line: Radioligand displacement assay, human adenosine A1 receptor ([3H]DPCPX, CHOhA1R membranes). The experiment is classed as binding. Conditions: n = 3; for inhibition at 10 µM: test compound 10 µM. The protocol: Chinese hamster ovary (CHO) cells stably expressing the human adenosine A1 receptor (CHOhA1R) were kindly provided by Prof. S. J. Hill and CHO cells stably expressing the human adenosine A3 receptor (CHOhA3R) were a gift from Dr. K.-N. Klotz (University of Würzburg, Germany). Chinese hamster ovary cells stably expressing the human A1-receptor (CHOhA1R) or the human A3-receptor (CHOhA3R) were grown in Dulbecco’s Modified Eagle’s Medium (DMEM) and Ham’s F12 medium (1:1) supplemented with 10% (v/v) newborn calf serum, 50 µg/mL streptomycin, 50 IU/mL penicillin, and 200 µg/mL G418 at 37 °C and 5% CO2. […] All cells were grown to 80–90% confluency and detached from plates by scraping them into 5 mL phosphate-buffered saline. Detached cells were collected and centrifuged at 200 g for 5 min. Pellets derived from 100 15 cm Ø plates were pooled and resuspended in 70 mL of ice-cold 50 mM tris(hydroxymethyl)aminomethane (Tris)-HCl buffer, pH 7.4. A Heidolph Diax 900 homogenizer was used to homogenize the cell suspension. Membranes and the cytosolic fraction were separated by centrifugation at 100,000 g in a Beckman Optima LE-80 K ultracentrifuge (Beckman Coulter, Fullerton, CA, USA) at 4 °C for 20 min. The pellet was resuspended in 35 mL of the Tris-HCl buffer, and the homogenization and centrifugation steps were repeated. Tris-HCl buffer (25 mL) was used to resuspend the pellet, and adenosine deaminase (ADA) was added (0.8 U/mL) to break down endogenous adenosine. Membranes were stored in 250 µL and 500 µL aliquots at −80 °C. Total protein concentrations were measured using the bicinchoninic acid (BCA) method.
(§1) A1 Receptor: Membrane aliquots containing 5 µg (CHOhA1R) protein were incubated in a total volume of 100 µL assay buffer (50 mM Tris-HCl, pH 7.4) at 25 °C for 1 h. […] Nonspecific binding was determined in the presence of 100 µM N^6-cyclopentyladenosine (CPA). Incubations were terminated by rapid vacuum filtration to separate the bound and free radioligand through prewetted 96-well GF/B filter plates using a PerkinElmer Filtermate-harvester (Perkin Elmer, Groningen, the Netherlands). Filters were subsequently washed 12 times with ice-cold 50 mM Tris-HCl, pH 7.4.
The plates of all four adenosine receptor assays were dried at 55 °C after which MicroscintTM-20-cocktail was added (Perkin Elmer, Groningen, The Netherlands).
All experimental data were analyzed using the non-linear regression curve fitting program GraphPad Prism 7.0 (GraphPad Software Inc., San Diego, CA, USA). IC50 values obtained from competition displacement binding data were converted into Ki values using the Cheng–Prusoff equation.
For orientation: Loss of bound radioactivity is the signal in a displacement assay; it reports binding, not function.

In another experiment the test system is P1 receptor. Kind of experiment: P1 receptor binding studies (A1, A2A, A2B and A3), overall statement. Further details: species or system human. To be noted: all four subtypes. As to the method: as §1
Nonspecific binding was determined in the presence of 100 µM adenosine-5-N-ethyluronamide (NECA). Incubations were terminated by rapid vacuum filtration to separate the bound and free radioligand through prewetted 96-well GF/B filter plates using a PerkinElmer Filtermate-harvester (Perkin Elmer, Groningen, The Netherlands). Filters were subsequently washed 12 times with ice-cold 50 mM Tris-HCl, pH 7.4.
A2B Receptor: Membrane aliquots containing 30 µg (CHO-spap-hA2BR) total protein were incubated in a total volume of 100 µL assay buffer (0.1% CHAPS in 50 mM TrisHCl, pH 7.4) at 25 °C for 2 h. […] Nonspecific binding was determined in the presence of 10 µM ZM241385. Incubations were terminated by rapid vacuum filtration to separate the bound and free radioligand through prewetted 96-well GF/B filter plates using a PerkinElmer Filtermate-harvester (Perkin Elmer, Groningen, the Netherlands). Filters were subsequently washed 12 times with ice-cold 0.1% BSA in 50 mM Tris-HCl, pH 7.4.
A3 Receptor: Membrane aliquots containing 15 µg (CHOhA3R) total protein were incubated in a total volume of 100 µL assay buffer (50 mM Tris-HCl, pH 8.0, supplemented with 10 mM MgCl2, 1 mM EDTA and 0.01% (w/v) CHAPS) at 25 °C for 2 h. […] Nonspecific binding was determined in the presence of 100 µM NECA. […]
All experimental data were analyzed using the non-linear regression curve fitting program GraphPad Prism 7.0 (GraphPad Software Inc., San Diego, CA, USA). […]

As usually defined, the inhibition is the change of the read-out against control, counted positive when it falls. Low values mean a weak effect, high ones a strong effect. `CSc1cc(N)c2ncn([C@H]3[C@H](O)[C@H](O)[C@]4(CO)C[C@H]34)c2n1` [Compound 17, (1R,2R,3S,4R,5S)-4-(7-Amino-5-methylthio-3H-imidazo[4,5-b]pyridin-3-yl)-1-(hydroxymethyl)bicyclo[3.1.0]hexane-2,3-diol]: 10 µM produced 23% inhibition in experiment [1]. Moreover, the “P1 receptor affinity” value in the experiment on P1 receptor is “loss of P1 receptor affinity”.
The like results for `Nc1cc(Cl)c2ncn([C@H]3[C@H](O)[C@H](O)[C@]4(CO)C[C@H]34)c2n1` [Compound 11, (1R,2R,3S,4R,5S)-4-(5-Amino-7-chloro-3H-imidazo[4,5-b]pyridin-3-yl)-1-(hydroxymethyl)bicyclo[3.1.0]hexane-2,3-diol] were, in that order, 5% and “no P1 receptor affinity”.
For orientation: pKi means the negative decadic logarithm of the Ki, by convention in mol/L. Consider `OC[C@@]12C[C@@H]1[C@@H](n1cnc3c(Cl)cc(Cl)nc31)[C@H](O)[C@@H]2O` [Compound 12, (1R,2R,3S,4R,5S)-4-(5,7-Dichloro-3H-imidazo[4,5-b]pyridin-3-yl)-1-(hydroxymethyl)bicyclo[3.1.0]hexane-2,3-diol], for which the negative-log Ki (pKi) in experiment [1] ([3H]DPCPX, read-out: A1 Ki ± SEM) is less than 5.00. Also, the “P1 receptor affinity” value in the experiment on P1 receptor is reported as “no P1 receptor affinity”.

Values taken from paper PMC9000336, “Development of Bicyclo[3.1.0]hexane-Based A3 Receptor Ligands: Closing the Gaps in the Structure–Affinity Relationships” (Molecules, 2022).
